Reference: patent US10435372B2, “Use of phenylpyrazolin-3-carboxylates for improving plant yield” (BAYER INTELLECTUAL PROPERTY GMBH, priority 2011, dated 2019)

How the values were obtained:
Type in all cases: in vivo
spring wheat [1] = test: Field trial: grain yield of spring wheat, postemergence treatment with MPR + epoxiconazole; conditions: EPC 125, MPR + EPC 100 + 125 g ai/ha
Source text: (§1) The applications have been done with seed treatment, pre- or post-emergence treatments straight (alone, 1 application) or sequential treatments e.g. seed treatment followed by pre-emergence and/or post-emergence spray applications. The pre- or post-emergence applications were made with spray applications using 100-300 l/water per hectare. The growth stage of the crops species at the time of application are reported in the result tables. The dose rates of the herbicidal active ingredients applied alone respective in sequential application are also described in the result tables. The assessments have been done via visual ratings (0-100% scale) or counting. The trials have been harvested after crops reached the full maturity. After the harvest the total weight of kernels/seeds/beets per plot was measured. The results are reported as means over 2-4 replications. The time between applications and assessments or countings/harvest are described in the result tables as well.

winter wheat [2] = test: Field trial: grain yield of winter wheat, postemergence treatment with mefenpyr-diethyl
Source text: (§2) The trials have been carried out under natural field conditions (plot trials, 10 square meter plots, 2-4 replications).
(§3) The applications have been done with seed treatment, pre- or post-emergence treatments straight (alone, 1 application) or sequential treatments e.g. seed treatment followed by pre-emergence and/or post-emergence spray applications. The pre- or post-emergence applications were made with spray applications using 100-300 l/water per hectare. The growth stage of the crops species at the time of application are reported in the result tables. The dose rates of the herbicidal active ingredients applied alone respective in sequential application are also described in the result tables.
(§4) The assessments have been done via visual ratings (0-100% scale) or counting. The trials have been harvested after crops reached the full maturity. After the harvest the total weight of kernels/seeds/beets per plot was measured. The results are reported as means over 2-4 replications. The time between applications and assessments or countings/harvest are described in the result tables as well.

spring wheat [3] = test: Field trial: grain yield of spring wheat, postemergence treatment with mefenpyr-diethyl
Source text: as §2, §3, §4

durum wheat = test: Field trial: grain yield of durum wheat, seed treatment with mefenpyr-diethyl
Source text: as §2, §3, §4
(§5) The active ingredients have been applied to the untreated, dry seeds together with a carrier. After a short period of time to let the seeds dry, they were ready to be sown in the pot or field using standard equipments.

winter wheat [4] = test: Field trial: emergence (number of plants) of winter wheat, pre-emergence application of mefenpyr-diethyl; conditions: 11 days after application
Source text: as §2, §3, §4

winter barley = test: Field trial: grain yield of winter barley, sequential application of MPR; conditions: 0.5 g ai/kg seed fb 4 × 50 g ai/ha post
Source text: as §2, §3, §4, §5

[5] = tested on: winter oilseed rape (canola); test: Field trial: grain yield of winter oilseed rape (canola), sequential application of mefenpyr-diethyl; conditions: 3 g ai/kg seed fb 3 × 50 g ai/ha post
Source text: as §2, §3, §4, §5

sugarbeet = test: Field trial: beet yield of sugarbeet, sequential application of mefenpyr-diethyl; conditions: 0.015 mg ai/seed fb 3 × 50 g ai/ha post
Source text: as §2, §3, §4, §5

sugarbeets [6] = test: Field trial: emergence of sugarbeets, seed treatment with MPR; conditions: seed treatment 0.015 mg ai/seed, 28 days after planting
Source text: as §2, §3, §4, §5

sugarbeets [7] = test: Field trial: sugar yield of sugarbeets, sequential application of mefenpyr-diethyl; conditions: 0.015 mg ai/seed fb 3 × 50 g ai/ha post
Source text: as §2, §3, §4, §5

[8] = tested on: spring oilseed rape (canola); test: Field trial: grain yield of spring oilseed rape (canola), postemergence treatment with MPR + tebuconazole; conditions: TBC 150, MPR + TBC 100 + 150 g ai/ha
Source text: as §1

[9] = grain yield relative to UTC = 100%

In the case of `Fc1ccc([C@]2(Cn3cncn3)O[C@H]2c2ccccc2Cl)cc1` (racemic) [EPC, epoxiconazole], the Relative % (spring wheat [1]; [9]) was 109.7%, the “Difference (%) vs. UTC” value (spring wheat [1]; grain yield) was “+9.7%” and the “Yield (grain yield at harvest)” value (spring wheat [1]; spring wheat, post-emergence spring, flag leaf sheath opening, harvest 55 days after application, UTC 1.84) was 2.02 t/ha.

With `CCOC(=O)C1=NN(c2ccc(Cl)cc2Cl)C(C)(C(=O)OCC)C1` (stereo not drawn) [MPR, ethyl 1-(2,4-dichlorophenyl)-5-(ethoxycarbonyl)-5-methyl-2-pyrazoline-3-carboxylate] the Relative % (winter wheat [2]; grain yield relative to UTC = 100%, 100 g ai/ha post-emergence, 84 days after application) was 106.3%, the “Difference (%) vs. UTC” value (winter wheat [2]; grain yield, 100 g ai/ha post-emergence, 84 days after application) was “+6.3%” and the “Yield (grain yield at harvest)” value (winter wheat [2]; winter wheat, 100 g ai/ha post-emergence spring, beginning of stem elongation, harvest 84 days after application, UTC 9.52) was 10.12 t/ha. For the same molecule, the Relative % (spring wheat [3]; grain yield relative to UTC = 100%, 100 g ai/ha post-emergence, 72 days after application) was 119.2%, the “Difference (%) vs. UTC” value (spring wheat [3]; grain yield, 100 g ai/ha post-emergence, 72 days after application) was “+19.2%” and the “Yield (grain yield at harvest)” value (spring wheat [3]; spring wheat, 100 g ai/ha post-emergence spring, flag leaf/beginning of ear heading, harvest 72 days after application, UTC 6.06) was 7.16 t/ha. The “Yield (grain yield at harvest)” value (durum wheat; durum wheat, seed treatment 0.5 g ai/kg seed prior planting, harvest 158 days after application, UTC 4.45) was 4.97 t/ha, the Relative % (durum wheat; grain yield relative to UTC = 100%, seed treatment 0.5 g ai/kg seed) was 111.7% and the “Difference (%) vs. UTC” value (durum wheat; grain yield, seed treatment 0.5 g ai/kg seed) was “+11.7%”. The Relative % (winter wheat [4]; number of plants relative to UTC = 100%, pre-emergence, dose 100) was 107.4%, the “Difference (%) vs. UTC” value (winter wheat [4]; number of plants, pre-emergence, dose 100) was “+7.4%” and the “Yield [plants/row meter] (number of plants, increased emergence)” value (winter wheat [4]; winter wheat, pre-emergence treatment, dose 100 g ai/ha, UTC 34.2) was 36.8 plants/row meter. The Relative (winter barley; [9]) was 104%, the “Difference (%) vs. UTC” value (winter barley; grain yield) was “+4%” and the “Yield (grain yield at harvest)” value (winter barley; winter barley, harvest 74 days after the last application, UTC 10.01) was 10.45 t/ha. For the same molecule, the Relative [5, 9] was 107%, the “Difference (%) vs. UTC” value ([5]; grain yield) was “+7%” and the “Yield (grain yield at harvest)” value ([5]; winter oilseed rape, harvest 102 days after the last application, UTC 3.60) was 3.85 t/ha. The Relative (sugarbeet; beet yield relative to UTC = 100%) was 108.1%, the “Difference (%) vs. UTC” value (sugarbeet; beet yield) was “+8.1%” and the “Yield (yield of beets by weight at harvest)” value (sugarbeet; sugarbeet, harvest 162 days after last application, UTC 58.7) was 63.5 t/ha. The Relative (sugarbeets [6]; emerged plants relative to UTC = 100%) was 109.2%, the “Difference (%) vs. UTC” value (sugarbeets [6]; emerged plants) was “+9.2%” and the “plants/18 row meters (emergence, counting)” value (sugarbeets [6]; sugarbeets, UTC 65) was 71 plants/18 row meters. The Relative (sugarbeets [7]; sugar yield relative to UTC = 100%) was 106.1%, the “Difference (%) vs. UTC” value (sugarbeets [7]; sugar yield) was “+6.1%” and the “Sugar Yield (by weight at harvest)” value (sugarbeets [7]; sugarbeets, harvest 162 days after the last application, UTC 5.70) was 6.05 t/ha.

`CC(C)(C)C(O)(CCc1ccc(Cl)cc1)Cn1cncn1` (stereo not drawn) [TBC, tebuconazole] was tested, and the Relative % [8, 9] was 102%, the “Difference (%) vs. UTC” value ([8]; grain yield) was “+2%” and the “Yield (grain yield at harvest)” value ([8]; spring oilseed rape, post-emergence spring, beginning of flowering, harvest 92 days after application, UTC 3.91) was 3.98 t/ha.
